{"source": "paper PMC9867837", "about": "(Cancer letters, 2022)", "key": {"[1]": {"biological_target": "Stat5:Stat5 DNA-binding activity", "experiment": "EMSA of Stat5:Stat5 DNA-binding activity in nuclear extracts of EGF-stimulated NIH3T3/hEGFR", "format": "biochemical, mouse", "conditions": "Fig. 1C, MGFe probe, 30 min", "method": "(§1) These studies were carried out as previously described using the ^32P-labeled oligonucleotide probes, hSIE (high affinity sis-inducible element from the c-fos gene, m67 variant, 5^′-[…]) that binds Stat1 and Stat3 [11, 12] and the mammary gland factor element (MGFe) from the bovine β–casein gene promoter (sense strand, 5^′-[…]) that binds Stat5 and Stat1 [11, 12]. Details are presented in Supplementary Information, “Methods”. […]\n(§2) min, prior to incubation with the radiolabeled probe for 30 min at 30 °C and subjecting to EMSA analysis.\n(§3) In another case, the nuclear extract was pre-incubated with the radiolabeled probe for 30 min at 30 °C prior to incubation with increasing concentration of H182 at room temperature for 30 min and subjecting to EMSA analysis. Bands corresponding to Stats DNA- binding activities were scanned and quantified using ImageJ and plotted as a percentage of control (vehicle) against the concentration of the inhibitor, from which the IC50 values were derived ."}, "[2]": {"biological_target": "T1, Stat1:Stat1 DNA-binding activity (Mus musculus, UniProt P42225)", "T1 construct": "endogenous in cells; host or cells: EGF-stimulated NIH3T3/hEGFR fibroblasts (nuclear extract)", "T1 sequence (P42225 2-749 limits assumed)": "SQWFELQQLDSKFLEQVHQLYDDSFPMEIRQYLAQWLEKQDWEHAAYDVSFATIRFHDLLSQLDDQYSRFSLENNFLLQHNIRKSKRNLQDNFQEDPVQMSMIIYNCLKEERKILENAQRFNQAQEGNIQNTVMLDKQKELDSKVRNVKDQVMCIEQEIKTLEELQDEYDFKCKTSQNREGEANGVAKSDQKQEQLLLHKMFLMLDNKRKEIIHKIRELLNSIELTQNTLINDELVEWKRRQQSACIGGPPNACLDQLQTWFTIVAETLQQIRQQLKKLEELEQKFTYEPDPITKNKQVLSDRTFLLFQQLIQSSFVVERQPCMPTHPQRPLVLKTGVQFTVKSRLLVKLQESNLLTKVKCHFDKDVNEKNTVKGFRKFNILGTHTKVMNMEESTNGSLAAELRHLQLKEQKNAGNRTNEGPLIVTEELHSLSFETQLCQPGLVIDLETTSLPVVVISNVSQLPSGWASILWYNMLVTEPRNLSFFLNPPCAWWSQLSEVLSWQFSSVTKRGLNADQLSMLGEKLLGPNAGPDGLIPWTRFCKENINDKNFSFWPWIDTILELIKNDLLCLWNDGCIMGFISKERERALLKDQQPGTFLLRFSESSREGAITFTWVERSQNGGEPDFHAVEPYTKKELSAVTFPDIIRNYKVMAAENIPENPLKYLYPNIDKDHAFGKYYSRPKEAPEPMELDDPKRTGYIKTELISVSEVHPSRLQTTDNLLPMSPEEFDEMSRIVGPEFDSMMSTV", "experiment": "EMSA of Stat1:Stat1 DNA-binding activity in nuclear extracts of EGF-stimulated NIH3T3/hEGFR", "format": "biochemical", "conditions": "Fig. 1C, 30 min", "method": "as §1, §2, §3"}, "[3]": {"test_system": "MCF-10A cells", "experiment": "CyQuant viable cell number assay, MCF-10A", "format": "cell-based, human", "conditions": "72 h, read-out: IC50 viable cell numbers, MCF-10A", "method": "(§4) CyQuant assay was performed to evaluate compounds as previously reported. Details are presented in Supplementary Information, “Methods”. […]\n(§5) 1.2.6. Cell viability assays\n(§6) CyQuant assay was performed to evaluate compounds as previously reported [1 -3] . Briefly, cells (5 x 10^3 per well, 100 µl) in culture in 96-well plates were treated once with 0 -10 µM concentrations of H120, H105, […]\n(§7) concentration of H182 for 6 h and then treated with 0- 100 nM docetaxel or 0-20 µM cisplatin for a total of 72 h. Viable cell numbers were assessed by a CyQuant cell proliferation kit according to the manufacturer’s instructions (Thermo/Life Technologies Corp, Carlsbad, CA). Viable cell numbers were normalized to that of DMSO (control)-treated samples. […]"}, "[4]": {"test_system": "normal human mesothelial cells", "experiment": "CyQuant viable cell number assay, normal mesothelial cells", "format": "cell-based", "conditions": "72 h, read-out: IC50 viable cell numbers, normal human mesothelial cells", "method": "as §4, §5, §6, §7"}, "[5]": {"test_system": "HCC1937 cells", "experiment": "CyQuant viable cell number assay, HCC1937", "format": "cell-based, human", "conditions": "read-out: IC50 viable cell numbers, HCC1937", "method": "as §4, §5, §6, §7"}, "[6]": {"test_system": "MDA-MB-468 cells", "experiment": "CyQuant viable cell number assay, MDA-MB-468", "format": "cell-based, human", "conditions": "read-out: IC50 viable cell numbers, MDA-MB-468", "method": "as §4, §5, §6, §7"}, "[7]": {"biological_target": "Stat3 (Homo sapiens, UniProt P40763)", "sequence (P40763 whole entry)": "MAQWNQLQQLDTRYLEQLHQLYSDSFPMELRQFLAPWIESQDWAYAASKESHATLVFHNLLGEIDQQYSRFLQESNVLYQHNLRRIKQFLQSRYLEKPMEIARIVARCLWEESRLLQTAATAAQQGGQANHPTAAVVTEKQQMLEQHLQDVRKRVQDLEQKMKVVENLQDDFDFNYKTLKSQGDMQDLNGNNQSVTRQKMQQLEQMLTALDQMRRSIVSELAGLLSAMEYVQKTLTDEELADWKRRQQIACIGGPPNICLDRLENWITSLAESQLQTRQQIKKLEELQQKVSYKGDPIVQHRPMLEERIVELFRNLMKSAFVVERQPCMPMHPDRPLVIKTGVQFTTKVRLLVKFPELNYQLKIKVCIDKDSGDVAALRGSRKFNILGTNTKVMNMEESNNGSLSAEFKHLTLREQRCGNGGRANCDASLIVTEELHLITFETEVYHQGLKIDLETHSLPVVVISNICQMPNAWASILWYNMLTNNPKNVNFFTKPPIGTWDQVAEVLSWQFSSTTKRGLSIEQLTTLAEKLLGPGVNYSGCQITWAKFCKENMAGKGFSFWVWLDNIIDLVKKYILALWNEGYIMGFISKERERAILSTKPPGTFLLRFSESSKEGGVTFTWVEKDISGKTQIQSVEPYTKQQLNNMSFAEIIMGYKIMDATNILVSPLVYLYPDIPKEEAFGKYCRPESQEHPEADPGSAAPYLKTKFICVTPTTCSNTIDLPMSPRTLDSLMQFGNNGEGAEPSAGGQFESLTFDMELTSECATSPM", "experiment": "EMSA of constitutive Stat3 DNA-binding activity in nuclear extracts of treated breast cancer cells", "format": "cell-based", "parameters": "endogenous in cells", "conditions": "MDA-MB-468 and MDA-MB-231, 0–5 μM, 1 or 2 h", "method": "These studies were carried out as previously described using the ^32P-labeled oligonucleotide probes, hSIE (high affinity sis-inducible element from the c-fos gene, m67 variant, 5^′-[…]) that binds Stat1 and Stat3 [11, 12] and the mammary gland factor element (MGFe) from the bovine β–casein gene promoter (sense strand, 5^′-[…]) that binds Stat5 and Stat1 [11, 12]. Details are presented in Supplementary Information, “Methods”.\nNuclear extracts and whole-cell lysates were prepared, and samples of equal total protein were subjected to Stat3 DNA-binding assay/EMSA analysis using the hSIE probe, or to SDS/PAGE and Western blotting analysis for pY705Stat3, Stat3, or GAPDH [11, 12]. […] Depending on the concentration (1, 3, or 5 μM), the inhibitory effects of the azetidine compounds were observed relatively early, at 30–60 min, on both Stat3 DNA-binding activity (Fig. 4C) and Tyr phosphorylation (Fig. 4D, pY705Stat3)."}, "[8]": {"conditions": "first Stat1:Stat1 value listed (hSIE probe)"}, "[9]": {"conditions": "second Stat1:Stat1 value listed (MGFe probe)"}}, "note": "Where two headings read alike, the source gives them in different places."}
{"compound": "O=C([C@H]1CCN1S(=O)(=O)c1c(F)c(F)c(F)c(F)c1F)N(Cc1ccc(C2CCCCC2)cn1)c1ccc2c(=O)[nH]cnc2c1", "note": "[Compound H172]", "values": [{"measurement": "IC50", "setting": "[1]", "value": 20, "unit": "µM"}, {"measurement": "IC50", "setting": "[2]; [8]", "value": "> 20", "unit": "µM"}, {"measurement": "IC50", "setting": "[2]; [9]", "value": "> 20", "unit": "µM"}, {"measurement": "IC50", "setting": "[3]", "value": 4, "unit": "µM"}, {"measurement": "IC50", "setting": "[3]; Homo sapiens, MCF-10A", "value": "3.8 to 4", "unit": "µM"}, {"measurement": "IC50", "setting": "[4]", "value": "4.9 to 9.2", "unit": "µM"}, {"measurement": "IC50", "setting": "[5]; 72 h", "value": 4.8, "unit": "µM"}, {"measurement": "IC50", "setting": "[5]; Homo sapiens, HCC1937, 72 h", "value": "3.6 to 4.3", "unit": "µM"}, {"measurement": "IC50", "setting": "[6]; Homo sapiens, MDA-MB-468, 72 h", "value": 1.5, "unit": "µM"}, {"measurement": "Effect on constitutive Stat3 DNA-binding activity in cells", "setting": "[7]", "value": "dose-dependent inhibition"}]}
{"compound": "O=C([C@H]1CCN1S(=O)(=O)c1c(F)c(F)c(F)c(F)c1F)N(Cc1ccc(C2CCCCC2)cn1)c1ccc2c(=O)[nH]ncc2c1", "note": "[Compound H182]", "values": [{"measurement": "IC50", "setting": "[1]", "value": 19.1, "unit": "µM"}, {"measurement": "IC50", "setting": "[2]; [8]", "value": 16.8, "unit": "µM"}, {"measurement": "IC50", "setting": "[2]; [9]", "value": 17.8, "unit": "µM"}, {"measurement": "IC50", "setting": "[3]", "value": 3.8, "unit": "µM"}, {"measurement": "IC50", "setting": "[3]; Homo sapiens, MCF-10A", "value": "3.8 to 4", "unit": "µM"}, {"measurement": "IC50", "setting": "[4]", "value": "4.9 to 9.2", "unit": "µM"}, {"measurement": "IC50", "setting": "[5]; 72 h", "value": 3, "unit": "µM"}, {"measurement": "IC50", "setting": "[5]; Homo sapiens, HCC1937, 72 h", "value": "3.6 to 4.3", "unit": "µM"}, {"measurement": "IC50", "setting": "[6]; 72 h", "value": 1.1, "unit": "µM"}, {"measurement": "IC50", "setting": "[6]; Homo sapiens, MDA-MB-468, 72 h", "value": 1, "unit": "µM"}, {"measurement": "Effect on constitutive Stat3 DNA-binding activity in cells", "setting": "[7]", "value": "dose-dependent inhibition"}]}
